The record followed here is patent publication US20260297083A1, “SUBSTITUTED ACETYLENE COMPOUND DERIVATIVES AND THEIR PHARMACEUTICAL USE” (AVELOS THERAPEUTICS INC., priority 2023, published 2026).

The term IC50 denotes the point on the concentration scale where inhibition reaches its midpoint.

In this experiment the target is T1, Polθ polymerase domain (amino acids 1792-2590) (Homo sapiens, UniProt O75417).
T1 construct: 10×Histidine-SUMO (N, cleaved yes); made in house; host or cells: E. coli
T1 sequence (O75417 1792-2590): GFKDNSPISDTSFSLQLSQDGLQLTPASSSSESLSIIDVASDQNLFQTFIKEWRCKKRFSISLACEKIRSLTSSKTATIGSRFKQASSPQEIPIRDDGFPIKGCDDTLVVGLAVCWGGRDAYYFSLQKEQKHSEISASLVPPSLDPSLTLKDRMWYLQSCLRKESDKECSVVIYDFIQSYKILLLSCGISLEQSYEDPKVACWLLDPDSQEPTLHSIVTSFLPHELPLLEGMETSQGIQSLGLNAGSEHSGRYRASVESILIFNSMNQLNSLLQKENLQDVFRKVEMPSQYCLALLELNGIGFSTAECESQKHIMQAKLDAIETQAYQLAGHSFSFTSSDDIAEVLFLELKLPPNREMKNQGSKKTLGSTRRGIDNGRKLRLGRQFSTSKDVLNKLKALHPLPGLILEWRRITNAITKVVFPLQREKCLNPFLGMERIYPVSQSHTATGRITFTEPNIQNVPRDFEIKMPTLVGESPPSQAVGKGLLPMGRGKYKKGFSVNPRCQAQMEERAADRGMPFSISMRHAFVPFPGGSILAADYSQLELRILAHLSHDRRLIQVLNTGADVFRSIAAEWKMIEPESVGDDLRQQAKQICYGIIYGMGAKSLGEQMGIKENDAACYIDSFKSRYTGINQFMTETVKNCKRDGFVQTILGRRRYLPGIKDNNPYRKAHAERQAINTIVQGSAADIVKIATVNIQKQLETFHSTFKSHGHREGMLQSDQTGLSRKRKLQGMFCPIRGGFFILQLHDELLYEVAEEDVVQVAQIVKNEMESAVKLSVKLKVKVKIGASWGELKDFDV
Nature of the experiment: Picogreen assay of Polθ polymerase activity. Type of experiment: biochemical. Conditions: 12-point concentration response, 90 minutes incubation at room temperature, 8 nM Polθ in 2×polymerase mixture, read-out: PolQ IC50. The gist of the method:
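E. coli-expressed polymerase domain with His-SUMO tag removed; 2× enzyme mix (8 nM) combined with 2× substrate mix (100 nM annealed primer/template DNA, 40 uM dNTPs). Buffer 25 mM Tris-HCl pH 7.5, 12.5 mM NaCl, 0.5 mM MgCl2, 1 mM DTT. Reaction 90 min at room temperature, then EDTA/Picogreen stain read at 485/520 nm; 12-point IC50.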
Regarding `Cc1cc(C(F)(F)F)cc(N2[C@H](C(=O)N(CC#Cc3ccc(C(N)=O)cn3)c3ccc(F)c(C)c3)CCS2(=O)=O)n1` [compound 97], the half-maximal inhibitory concentration (IC50) is 0.001 to 0.05 µM.
On to `Cc1cc(C(F)(F)F)cc(N2[C@H](C(=O)N(CC#Cc3cnc4c(c3)CN(C)C4=O)c3ccc(F)c(C)c3)CCS2(=O)=O)n1` [compound 98], for which the 50% inhibitory concentration (IC50) lay in the range of 0.001 to 0.05 µM.
The figure for `Cc1cc(C(F)(F)F)cc(N2[C@H](C(=O)N(CC#Cc3cnc4c(c3)C(C)(C)N(C)C4=O)c3ccc(F)c(C)c3)CCS2(=O)=O)n1` [compound 99] is 0.001 to 0.05 µM.
The figure for `Cc1cc(C(F)(F)F)cc(N2[C@H](C(=O)N(CC#Cc3cnc4c(c3)C(=O)N(C)C4=O)c3ccc(F)c(C)c3)CCS2(=O)=O)n1` [compound 100] is 0.001 to 0.05 µM; for `Cc1cc(C(F)(F)F)cc(N2[C@H](C(=O)N(CC#Cc3n[nH]c(=O)c4ccccc34)c3ccc(F)c(C)c3)CCS2(=O)=O)n1` [compound 101] it is 0.051 to 0.1 µM; for `Cc1cc(C(F)(F)F)cc(N2[C@H](C(=O)N(CC#Cc3cncn3C)c3ccc(F)c(C)c3)CCS2(=O)=O)n1` [compound 102] it is 0.001 to 0.05 µM.
The figure for `Cc1cc(C(F)(F)F)cc(N2[C@H](C(=O)N(CC#Cc3ncnc(N4CCOCC4)n3)c3ccc(F)c(C)c3)CCS2(=O)=O)n1` [compound 103] is above 0.101 µM; for `Cc1cc(C(F)(F)F)cc(N2[C@H](C(=O)N(CC#Cc3nc(C(N)=O)co3)c3ccc(F)c(C)c3)CCS2(=O)=O)n1` [compound 104] it is 0.001 to 0.05 µM.
For `Cc1cc(C(F)(F)F)cc(N2[C@H](C(=O)N(CC#Cc3ccc(C(N)=O)cc3)c3ccc(F)c(C)c3)CCS2(=O)=O)n1` [compound 105], the concentration for half-maximal inhibition (IC50) is 0.001 to 0.05 µM.
The figure for `Cc1cc(C(F)(F)F)cc(N2[C@H](C(=O)N(CC#Cc3cccc(C(N)=O)c3)c3ccc(F)c(C)c3)CCS2(=O)=O)n1` [compound 106] is 0.001 to 0.05 µM; for `Cc1cccc(N(CC#Cc2ccc(N)nn2)C(=O)[C@@H]2CN(C)S(=O)(=O)N2c2cc(C(F)(F)F)cc(C)n2)c1` [compound 107] it is 0.001 to 0.05 µM; for `Cc1cccc(N(CC#Cc2cnc(N)cn2)C(=O)[C@@H]2CN(C)S(=O)(=O)N2c2cc(C(F)(F)F)cc(C)n2)c1` [compound 108] it is 0.051 to 0.1 µM.
Regarding `Cc1cc(C(F)(F)F)cc(N2[C@H](C(=O)N(CC#Cc3ccc(N)nn3)c3ccc(F)c(C)c3)CN(C)S2(=O)=O)n1` [compound 109], the 50% inhibitory concentration (IC50) lay in the range of 0.001 to 0.05 µM.
The figure for `Cc1cc(C(F)(F)F)cc(N2[C@H](C(=O)N(CC#Cc3ccc(N)nn3)c3ccc(F)c(C)c3)CN(C(C)C)S2(=O)=O)n1` [compound 110] is 0.001 to 0.05 µM.
For the compound `Cc1cc(C(F)(F)F)cc(N2[C@H](C(=O)N(CC#Cc3ccc(C(=O)N(C)C)nc3)c3ccc(F)c(C)c3)CCS2(=O)=O)n1` [compound 111], the IC50 was 0.001 to 0.05 µM.
For the compound `Cc1cc(C(F)(F)F)cc(N2[C@H](C(=O)N(CC#Cc3ccc(C(N)=O)nc3)C(C)(C)c3ccc(F)c(C)c3)CCS2(=O)=O)n1` [compound 112], the IC50 is above 0.101 µM.
The figure for `Cc1cc(C(F)(F)F)cc(N2[C@H](C(=O)N(CC#Cc3ccc(C(N)=O)nc3)Cc3ccc(F)c(C)c3)CCS2(=O)=O)n1` [compound 113] is above 0.101 µM; for `Cc1cc(C(F)(F)F)cc(N2[C@@H](C(=O)N(CC#Cc3ccc(C(N)=O)nc3)Cc3ccc(F)c(C)c3)CCS2(=O)=O)n1` [compound 114] it is above 0.101 µM.
The figure for `Cc1cc(C(F)(F)F)cc(N2[C@H](C(=O)N(CC#Cc3ccc(C#N)nc3)c3ccc(F)c(C)c3)CCS2(=O)=O)n1` [compound 115] is 0.001 to 0.05 µM.
The figure for `Cc1cc(C(F)(F)F)cc(N2[C@H](C(=O)N(CC#Cc3ccc(-c4ncon4)nc3)c3ccc(F)c(C)c3)CCS2(=O)=O)n1` [compound 116] is 0.001 to 0.05 µM; for `Cc1cc(C(F)(F)F)cc(N2[C@H](C(=O)N(CC#Cc3ccc(C(N)=O)nc3C)c3ccc(F)c(C)c3)CCS2(=O)=O)n1` [compound 117] it is 0.001 to 0.05 µM; for `Cc1cc(C(F)(F)F)cc(N2[C@H](C(=O)N(CC#Cc3ncc(C(N)=O)nc3C)c3ccc(F)c(C)c3)CCS2(=O)=O)n1` [compound 118] it is 0.001 to 0.05 µM.
Take `Cc1cc(C(F)(F)F)cc(N2[C@H](C(=O)N(CC#Cc3nc(C)c(C(N)=O)nc3C)c3ccc(F)c(C)c3)CCS2(=O)=O)n1` [compound 119]: the IC50 lay in the range of 0.001 to 0.05 µM.
The same measure for `Cc1cc(C(F)(F)F)cc(N2[C@H](C(=O)N(CC#Cc3cccc(C(N)=O)n3)c3ccc(F)c(C)c3)CCS2(=O)=O)n1` [compound 120]: 0.001 to 0.05 µM; for `Cc1cc(C(F)(F)F)cc(N2[C@H](C(=O)N(CC#Cc3cnc(C(N)=O)c(C#N)c3)c3ccc(F)c(C)c3)CCS2(=O)=O)n1` [compound 121]: 0.001 to 0.05 µM.
Regarding `Cc1cc(C(F)(F)F)cc(N2[C@H](C(=O)N(CC#Cc3cc(F)c(C(N)=O)cn3)c3ccc(F)c(C)c3)CCS2(=O)=O)n1` [compound 122], the IC50 was in the range of 0.001 to 0.05 µM.
The same measure for `Cc1cc(C(F)(F)F)cc(N2[C@H](C(=O)N(CC#Cc3cnc(C(N)=O)nn3)c3ccc(F)c(C)c3)CCS2(=O)=O)n1` [compound 123]: 0.001 to 0.05 µM; for `Cc1cc(C(F)(F)F)cc(N2[C@H](C(=O)N(CC#Cc3ncc(C(N)=O)nn3)c3ccc(F)c(C)c3)CCS2(=O)=O)n1` [compound 124]: 0.001 to 0.05 µM; for `Cc1cc(N(CC#Cc2cnc(N3CCOCC3)cn2)C(=O)[C@@H]2CCS(=O)(=O)N2c2cc(C(F)(F)F)cc(C(F)(F)F)n2)ccc1F` [compound 125]: 0.001 to 0.05 µM.
Take `Cc1cc(N(CC#Cc2ccc(C(N)=O)nc2)C(=O)[C@@H]2CCS(=O)(=O)N2c2cc(C(F)(F)F)cc(C(F)(F)F)n2)ccc1F` [compound 126]: the IC50 lay in the range of 0.001 to 0.05 µM.
The same measure for `C=CC(=O)Nc1cncc(C#CCN(C(=O)[C@@H]2CCS(=O)(=O)N2c2cc(C(F)(F)F)cc(C)n2)c2ccc(F)c(C)c2)c1` [compound 127]: 0.001 to 0.05 µM; for `C=CC(=O)Nc1cncc(C#CCN(C(=O)[C@@H]2CCS(=O)(=O)N2c2cc(C(F)(F)F)cc(C)n2)c2ccc(F)c(C)c2)n1` [compound 128]: 0.001 to 0.05 µM.
As to `C=CC(=O)Nc1ccc(C#CCN(C(=O)[C@@H]2CCS(=O)(=O)N2c2cc(C(F)(F)F)cc(C)n2)c2ccc(F)c(C)c2)nn1` [compound 129], the 50% inhibitory concentration (IC50) fell in the range of 0.001 to 0.05 µM.
Consider `C=C(F)C(=O)Nc1cncc(C#CCN(C(=O)[C@@H]2CCS(=O)(=O)N2c2cc(C(F)(F)F)cc(C)n2)c2ccc(F)c(C)c2)c1` [compound 130], for which the IC50 fell in the range of 0.001 to 0.05 µM.
The figure for `Cc1cc(C(F)(F)F)cc(N2[C@H](C(=O)N(CC#Cc3ccc(Cc4ccc(C(N)=O)nn4)nc3)c3ccc(F)c(C)c3)CCS2(=O)=O)n1` [compound 131] is 0.001 to 0.05 µM; for `Cc1cc(C(F)(F)F)cc(N2[C@H](C(=O)N(CC#Cc3ccc(Cc4ncc(C(N)=O)cn4)nc3)c3ccc(F)c(C)c3)CCS2(=O)=O)n1` [compound 132] it is 0.001 to 0.05 µM; for `Cc1cc(C(F)(F)F)cc(N2[C@H](C(=O)N(CC#Cc3ccc(Cc4ccc(=O)[nH]n4)nc3)c3ccc(F)c(C)c3)CCS2(=O)=O)n1` [compound 133] it is 0.001 to 0.05 µM.
The figure for `Cc1cc(C(F)(F)F)cc(N2[C@H](C(=O)N(CC#Cc3ccc(Cc4cnc5ccc(=O)[nH]c5c4)nc3)c3ccc(F)c(C)c3)CCS2(=O)=O)n1` [compound 134] is 0.001 to 0.05 µM.
With `Cc1cc(C(F)(F)F)cc(N2[C@H](C(=O)N(CC#Cc3ccc(Cc4cccc5c(=O)[nH]cnc45)nc3)c3ccc(F)c(C)c3)CCS2(=O)=O)n1` [compound 135], the half-inhibitory concentration (IC50) lay in the range of 0.001 to 0.05 µM.
The same measure for `Cc1cc(C(F)(F)F)cc(N2[C@H](C(=O)N(CC#Cc3ccc(Cn4cc5cccc(C(N)=O)c5n4)nc3)c3ccc(F)c(C)c3)CCS2(=O)=O)n1` [compound 136]: 0.001 to 0.05 µM; for `C=CC(=O)Nc1cccc(C#CCN(C(=O)[C@@H]2CCS(=O)(=O)N2c2cc(C(F)(F)F)cc(C)n2)c2ccc(F)c(C)c2)n1` [compound 137, (S)-N-(3-(6-acrylamidopyridin-2-yl)prop-2-yn-1-yl)-N-(4-fluoro-3-methylphenyl)-2-(6-methyl-4-(trifluoromethyl)pyridin-2-yl)isothiazolidine-3-carboxamide 1,1-dioxide]: 0.001 to 0.05 µM.
The same measure for `C=CC(=O)Nc1ccnc(C#CCN(C(=O)[C@@H]2CCS(=O)(=O)N2c2cc(C(F)(F)F)cc(C)n2)c2ccc(F)c(C)c2)c1` [compound 138, (S)-N-(3-(4-acrylamidopyridin-2-yl)prop-2-yn-1-yl)-N-(4-fluoro-3-methylphenyl)-2-(6-methyl-4-(trifluoromethyl)pyridin-2-yl)isothiazolidine-3-carboxamide 1,1-dioxide]: 0.001 to 0.05 µM.
